{"source": "patent US8247538B2", "about": "“Preparation method of radioisotope labeling compound using carbon nanotube” (Korea Atomic Energy Research Institute, priority 2006, dated 2012)", "assay": "In vivo dynamic kinetics, gamma camera imaging after intravenous injection", "set-up": "species or system New Zealand White male rabbits", "details": "rabbits, 100 μCi/0.1 ml into left ear vein", "experimental": "The ^99mTc-2,6-diisopropylacetanilidoiminodiacetic acid prepared in Example 1 was assayed for in vivo dynamic kinetics as follows.\nAfter 6-week-old New Zealand White male rabbits (2887.6±101.5 g, n=3) were anesthetized with ketamine and xylazine, the radioactive compound of Example 1 was injected at a dose of 100 μCi/0.1 ml into the left ear vein of each of the rabbits. All of the rabbits were placed in a pronating posture. Moving pictures were taken for 30 min of each of the rabbits using a gamma camera fitted with a low energy, multipurpose collimator while 16 still pictures were also taken at predetermined time intervals. The image analyzer was set to 140 KeV with a 20% energy window. Image data were analyzed under the dynamic procedure of a Microdelta system (Simens, USA). The static images were taken at 1.52, 3.45, 5.37, 7.30, 9.22, 11.15, 13.07, 15.00, 16.52, 18.45, 20.37, 22.30, 24.22, 26.15, 28.07 and 30 min after the injection, and the results are given in FIG. 3."}
{"substance": "^99mTc-2,6-diisopropylacetanilidoiminodiacetic acid [Example 1]", "values": [{"measurement": "in vivo distribution seen in gamma camera images (FIG. 3)", "setting": "images 1.52-30 min after injection", "value": "detected prominently in the hepatobiliary system, with the highest concentration at the liver"}, {"measurement": "contrast ratio between images taken of the liver and of other organs, compared with conventional contrast media for imaging the hepatobiliary system", "setting": "imaging for 30 min", "value": "higher"}]}
